Measured values as given in patent US5486516A, “Furopyrimidine derivatives” (DowElanco, priority 1993, dated 1996).
Like-named read-outs stand apart in the source and are kept apart here.

How the values were obtained:
[1] = system: Southern corn rootworm (Diabrotica undecimpuctata howardi Barber); test: Mite/insect screen, corn rootworm; assay type: in vivo; conditions: Diabrotica, soil, read-out: CRW results (percent mortality)
Description: (§1) The compounds of Examples were tested for miticidal and insecticidal activity in the following mite/insect screen.
(§2) Each test compound was formulated by dissolving the compound in acetone/alcohol (50:50) mixture containing 23 g of "TOXIMUL R" (sulfonate/nonionic emulsifier blend) and 13 g of "TOXIMUL S" (sulfonate/nonionic emulsifier blend) per liter. These mixtures were then diluted with water to give the indicated concentrations.
Activity on Southern corn rootworm (Diabrotica undecimpuctata howardi Barber) was evaluated by adding two ml of tap water, a presoaked corn seed, and 15 g of dry sandy soil to a one ounce plastic container. The soil was treated with 1 mL of test solution containing a predetermined concentration of test compound. After six to 12 hours of drying, five 2-3 instar corn rootworm larvae were added to the individual cups, which were then capped and held at 23° C.
(§3) After standard exposure periods, percent mortality and phytotoxicity were evaluated. […] The following abbreviations are used in Table 3:
CRW refers to corn rootworm

[2] = system: Erysiphe graminis tritici (powdery mildew); test: Plant pathology screen (Test 1), powdery mildew on wheat; conditions: Blumeria graminis, in Triticum aestivum, foliar, read-out: POWD MDEW control rating
Description: The test compounds were formulated for application by dissolving 50 mg of the compound into 1.25 ml of solvent. The solvent was prepared by mixing 50 ml of "Tween 20" (polyoxyethylene (20) sorbitan monolaurate emulsifier) with 475 ml of acetone and 475 ml of ethanol. The solvent/compound solution was diluted to 125 ml with deionized water. The resulting formulation contains 400 ppm test chemical. Lower concentrations were obtained by serial dilution with the solvent-surfactant mixture.
The formulated test compounds were applied by foliar spray.
The formulated technical compounds were sprayed on all foliar surfaces of the host plants (or cut berry) to past run-off. Single pots of each host plant were placed on raised, revolving pedestals in a fume hood. Test solutions were sprayed on all foliar surfaces. All treatments were allowed to dry and the plants were inoculated with the appropriate pathogens within 2-4 hours.
The effectiveness of test compounds in controlling disease was rated using the following scale.

[3] = system: melon aphids (Aphis gossvpii Glover); test: Mite/insect screen, melon aphids; assay type: in vivo; conditions: Aphis, read-out: MA results (percent mortality)
Description: as §1, §2
(§4) Twospotted spider mites (Tetranychus urticae Koch) and melon aphids (Aphis gossvpii Glover) were introduced on squash cotyledons and allowed to establish on both leaf surfaces. Other plants in the same treatment pot were left uninfested. The leaves were then sprayed with 5 ml of test solution using a DeVilbiss atomizing sprayer at 10 psi. Both surfaces of the leaves were covered until runoff, and then allowed to dry for one hour. Two uninfested leaves were then excised and placed into a Petri dish containing larval southern armyworm (Spodopetra eridania Cramer).
as §3
MA refers to melon aphids.

[4] = system: southern armyworm (Spodopetra eridania Cramer); test: Mite/insect screen, Southern armyworm; assay type: in vivo; conditions: Spodoptera eridania, read-out: SAW results (percent mortality)
Description: as §1, §2, §4, §3
SAW refers to Southern armyworm

[5] = system: Pseudoperonospora cubensis (downy mildew); test: Plant pathology screen (Test 1), downy mildew on squash; conditions: foliar, read-out: DOWN MDEW control rating
[6] = system: Twospotted spider mites (Tetranychus urticae Koch); test: Mite/insect screen, twospotted spider mites; assay type: in vivo; conditions: Tetranychus urticae, read-out: SM results (percent mortality)
Description: as §1, §2, §4, §3
SM refers to twospotted spider mites

[7] = system: Puccinia recondita tritici (leaf rust); test: Plant pathology screen (Test 1), leaf rust on wheat; conditions: in Triticum aestivum, foliar, read-out: LEAF RUST control rating
[8] = system: Botrytis cinerea (gray mold); test: Plant pathology screen (Test 1), gray mold on grape berries; conditions: read-out: GRAY MOLD control rating
[9] = system: Pyricularia oryzae (rice blast); test: whole plant or invertebrate; assay type: in vivo; conditions: foliar, read-out: RICE BLAST control rating

Row | SMILES | mortality at 12 ppm ([1]; CRW rate 12.00 ppm) | mortality at 24 ppm ([1]; CRW rate 24.00 ppm) | pest or weed control at 400 µg/mL [2] | mortality at 200 ppm ([3]; rate 200 ppm, sprayed leaves) | mortality at 400 ppm ([3]; rate 400 ppm, sprayed leaves) | mortality at 200 ppm ([4]; rate 200 ppm, sprayed leaves) | mortality at 400 ppm ([4]; rate 400 ppm, sprayed leaves) | pest or weed control at 400 µg/mL [5] | mortality at 200 ppm ([6]; rate 200 ppm, sprayed leaves) | mortality at 400 ppm ([6]; rate 400 ppm, sprayed leaves) | pest or weed control at 400 µg/mL [7] | pest or weed control at 400 µg/mL [8] | pest or weed control at 400 µg/mL [9] | further results
1 | Cc1cc2c(Oc3ccc(F)cc3)ncnc2o1 [Example 5, 6-methyl-4-(4-fluorophenoxy)furo[2,3-d]pyrimidine] | 0% | 0% | 20 to 89% | 0% | 0% | 0% | 0% | 0 to 19% | 0% | 0% | 90 to 100% | 0 to 19% | 0 to 19% | 
2 | Cc1cc2c(NCCc3ccc(Cl)cc3)ncnc2o1 [Example 6, 6-methyl-N-[2-(4-chlorophenyl)ethyl]furo(2,3-d]pyrimidin-4-amine] | 0% | 0% | 0 to 19% | 0% | 0% | 0% | 0% | 0 to 19% | 0% | 0% | 0 to 19% | 0 to 19% | 0 to 19% | 
3 | Cc1cc2c(OCCc3ccc(-c4ccccc4)cc3)ncnc2o1 [Example 7, 4-[2-(1,1'-biphenyl)-4-ylethoxy]6-methylfuro[2,3-d]pyrimidine] | 0% | 0% | 0 to 19% | 100% | 0% | 0% | 0% | 20 to 89% | 30% | 0% | 0 to 19% | 0 to 19% | 20 to 89% | 
4 | Cc1cc2c(NCCc3cccc(C(F)(F)F)c3)ncnc2o1 [Example 8, 6-methyl-N-[2-[3-(trifluoromethyl)phenyl]ethyl]furo[2,3-d]pyrimidin-4-amine] | 0% | 0% | 20 to 89% | 0% | 0% | 0% | 0% | 90 to 100% | 0% | 0% | 90 to 100% | 0 to 19% | 20 to 89% | 
5 | CCOc1ccc(CCNc2ncnc3oc(C)cc23)cc1 [Example 9, 6-methyl-N-[2-(4-ethoxyphenyl)ethyl]furo(2,3-d]pyrimidin-4-amine] | 0% | 0% | 0 to 19% | 0% | 0% | 0% | 0% | 20 to 89% | 0% | 0% | 90 to 100% | 0 to 19% | 0 to 19% | 
6 | Cc1oc2ncnc(NCCc3ccc(Cl)cc3)c2c1C [Example 10, N-(2-(4-chlorophenyl)ethyl]-5,6-dimethylfuro[2,3-d]pyrimidin-4-amine] | 0% | 0% | 0 to 19% | 0% | 0% | 0% | 0% | 20 to 89% | 0% | 0% | 20 to 89% | 0 to 19% | 90 to 100% | 
7 | Cc1coc2ncnc(NCCc3ccc(Cl)cc3)c12 [Example 11, 5-methyl-N-[2-(4-chlorophenyl)ethyl]furo[2,3-d]pyrimidin-4-amine] | 0% | 0% | 20 to 89% | 90% | 0% | 0% | 60% | 90 to 100% | 30% | 0% | 90 to 100% | 0 to 19% | 90 to 100% | 
8 | Cc1oc2ncnc(NCCc3ccccc3)c2c1C [Example 12, 5,6-dimethyl-N-(2-phenylethyl)furo[2,3-d]pyrimidin-4-amine] | 0% | 0% | 0 to 19% | 0% | 0% | 0% | 0% | 90 to 100% | 0% | 0% | 90 to 100% | 0 to 19% | 20 to 89% | 
9 | Cc1oc2ncnc(OCCCc3cccnc3)c2c1C [Example 13, 5,6-dimethyl-4-[3-(3-pyridinyl)propoxy]furo[2,3-d]pyrimidine] | 0% | 100% | 0 to 19% | 0% | 0% | 0% | 0% | 0 to 19% | 0% | 0% | 0 to 19% | 0 to 19% | 0 to 19% | 
10 | Cc1oc2ncnc(NCCSCc3c(F)cccc3Cl)c2c1C [Example 14, 5,6 dimethyl-N-[2-[[(2-chloro-6-fluorophenyl)methyl]thio]ethyl]furo[2,3-d]pyrimidin-4-amine] | 0% | 0% | 0 to 19% | 0% | 0% | 0% | 0% | 0 to 19% | 0% | 0% | 0 to 19% | 0 to 19% | 0 to 19% | 
11 | COc1ccc(CCNc2ncnc3occc23)cc1 [Example 15, N-[2-(4-methyloxyphenyl)ethyl]furo[2,3-d]pyrimidin-4-amine] | 0% | 0% | 20 to 89% | 0% | 0% | 0% | 0% | 90 to 100% | 0% | 0% | 90 to 100% | 0 to 19% | 20 to 89% | 
12 | Cc1coc2ncnc(NCCSCc3c(F)cccc3Cl)c12 [Example 16, 5-methyl-N-[2-[[ (2-chloro-6-fluorophenyl)methyl]thio]ethyl]furo[2,3-d]pyrimidin-4-amine] | 0% | 0% | 0 to 19% | 0% | 0% | 0% | 0% | 0 to 19% | 0% | 0% | 0 to 19% | 0 to 19% | 0 to 19% | 
13 | Cc1oc2ncnc(OC3CN4CCC3CC4)c2c1C (stereo not shown) [Example 17, 5,6-dimethyl-4-(1-azabicyclo[2.2.2]oct-3-yloxy)furo[2,3-d]pyrimidine] |  |  | 0 to 19% |  |  |  |  | 0 to 19% |  |  | 0 to 19% | 0 to 19% | 0 to 19% | mortality at 12 ppm [1]: 0%; mortality at 24 ppm [1]: 0%; mortality at 200 ppm [3]: 0%; mortality at 400 ppm [3]: 0%; mortality at 200 ppm [4]: 0%; mortality at 400 ppm [4]: 0%; mortality at 200 ppm [6]: 0%; mortality at 400 ppm [6]: 0%
